Measurements from ChEMBL document CHEMBL4049443, “Discovery of 2-[[2-Ethyl-6-[4-[2-(3-hydroxyazetidin-1-yl)-2-oxoethyl]piperazin-1-yl]-8-methylimidazo[1,2-a]pyridin-3-yl]methylamino]-4-(4-fluorophenyl)thiazole-5-carbonitrile (GLPG1690), a First-in-Class Autotaxin Inhibitor Undergoing Clinical Evaluation for the Treatment of Idiopathic Pulmonary …” (J Med Chem, 2017).

Key:
Cytochrome P450 3A4 = Cytochrome P450 3A4 (Homo sapiens, UniProt P08684); experiment: Time-dependent inhibition of human liver microsomes CYP3A4; assay type: ADME
Cytochrome P450 3A4, sequence (P08684 whole entry): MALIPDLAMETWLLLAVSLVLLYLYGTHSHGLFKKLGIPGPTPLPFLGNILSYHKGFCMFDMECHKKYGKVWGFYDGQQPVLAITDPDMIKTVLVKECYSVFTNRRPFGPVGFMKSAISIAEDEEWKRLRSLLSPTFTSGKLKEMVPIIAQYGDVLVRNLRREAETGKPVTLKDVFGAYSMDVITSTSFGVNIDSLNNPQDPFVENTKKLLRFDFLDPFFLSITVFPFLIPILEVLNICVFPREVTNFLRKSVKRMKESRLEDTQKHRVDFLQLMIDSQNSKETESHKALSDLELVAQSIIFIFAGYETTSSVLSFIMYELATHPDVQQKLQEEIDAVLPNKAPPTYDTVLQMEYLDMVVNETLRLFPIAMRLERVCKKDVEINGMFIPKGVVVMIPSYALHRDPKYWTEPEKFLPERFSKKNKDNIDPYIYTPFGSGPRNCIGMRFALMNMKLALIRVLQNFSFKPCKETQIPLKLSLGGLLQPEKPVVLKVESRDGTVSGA

Autotaxin = Autotaxin (Homo sapiens, UniProt Q13822); experiment: Inhibition of human ATX using LPC (16:0) as substrate after 30 mins by horseradish peroxidase/choline oxidase coupled enzyme based spectrophotometric analysis
[1] = Chemical stability of the compound in DMSO by 1H NMR analysis; assay type: physicochemical
[2] = Chemical stability of the compound in DMSO by LC-MS analysis; assay type: physicochemical

| TDI (Cytochrome P450 3A4) | IC50 (Autotaxin) [nM] | Stability [1] | Stability [2] | Compound |
| --- | --- | --- | --- | --- |
| Active | 192 |  |  | CCc1nc2ccc(C3CCN(CC(=O)N4CC(O)C4)CC3)nn2c1N(C)c1ccc(C#N)c(-c2ccc(F)cc2)n1 |
| Not Active | 102 | Unstable | Unstable | CCc1nc2cnc(N3CCN(CC(=O)N4CC(O)C4)CC3)cn2c1N(C)c1nc(-c2ccc(F)cc2)c(C#N)s1 |
| Not Active | 811 |  |  | CCc1nc2cc(C)c(C3CCN(CC(=O)N4CC(O)C4)CC3)cn2c1N(C)c1nc(-c2ccc(F)cc2)cs1 |
